According to US20080255139A1, “Use Of 4- (4-Methylpiperazin-1-Ylmethyl)-N-[4-Methyl-3-(4-(Pyridin-3-Yl)Pyrimidin-2-Ylamino)Phenyl]-Benzamide to Inhibit the Tyrosine Kinase Receptor C-Fms” (priority 2004, published 2008):
Entries after “also recorded” stand apart in the source; their conditions may differ. Where two headings read alike, the source gives them in different places.

How the values were obtained:
[1] = test system: M-CSF production by the cultured monocytes; experiment: M-CSF ELISA on GM-CSF stimulated monocyte cultures; type: cell-based, human
Protocol: M-CSF ELISA. Monocytes are isolated from buffy coats from normal donors, as previously described, e.g. in Dewar A et al., 2003, Leukemia 17:1713-21. Monocyte cultures (1×10^5/mL) are established in 24 well plates in serum deprived medium (SDM; IMDM/1% BSA supplemented with 2 mM L-glutamine, 200 μg/mL transferrin, 10 μg/mL insulin (Actrapid®, Novo Nordisk), 10^−4 M β-mercaptoethanol, 50 μg/mL low density lipoproteins (Sigma)) and stimulated with 20 ng/mL GM-CSF. Supernatants are harvested at 24 h intervals for 5 days, and analysed for M-CSF using an R&D Systems DuoSete ELISA development system according to the manufacturers instructions.

FDC-cfms cells = details: for Cell count, IL-3, 12 H: 0 μM control 125433; for Cell count, IL-3, 24 H: 0 μM control 257726; for Cell count, IL-3, 48 H: 0 μM control 1123171
[2] = test system: FDC-cfms cells (M-CSF dependent, c-fms); details: for Cell count, M-CSF, 12 H: 0 μM control 132174; for Cell count, M-CSF, 24 H: 0 μM control 310859; for Cell count, M-CSF, 48 H: 0 μM control 1453642
[3] = test system: FDC-cfms cells (M-CSF dependent, c-fms); experiment: cells; details: 12 h, read-out: inhibition of cell growth, M-CSF sole stimulation

Cc1ccc(NC(=O)c2ccc(CN3CCN(C)CC3)cc2)cc1Nc1nccc(-c2cccnc2)n1 [Compound I, 4-(4-methylpiperazin-1-ylmethyl)-N-[4-methyl-3-(4-(pyridin-3-yl)pyrimidin-2-ylamino)phenyl]-benzamide]
effect on M-CSF production by the cultured monocytes ([1]; 1.0 μM Compound I, GM-CSF 20 ng/mL): no effect | decrease in M-CSF production ([1]; 5.0 μM, GM-CSF stimulated monocytes): 30% | effect on cell growth, IL-3 stimulated control cultures (FDC-cfms cells; 12 or 24 h, 0.5-5.0 μM Compound I): no Compound I-specific effects on cell growth; also recorded: No effect | Cell count, IL-3, 12 H (FDC-cfms cells; Compound I 0.5 μM): 131724 cells/mL | Cell count, IL-3, 24 H (FDC-cfms cells; Compound I 0.5 μM): 281975 cells/mL | Cell count, IL-3, 48 H (FDC-cfms cells; Compound I 0.5 μM): 1107666 cells/mL | Cell count, IL-3, 12 H (FDC-cfms cells; Compound I 1 μM): 126472 cells/mL | Cell count, IL-3, 24 H (FDC-cfms cells; Compound I 1 μM): 264007 cells/mL | Cell count, IL-3, 48 H (FDC-cfms cells; Compound I 1 μM): 1068150 cells/mL | Cell count, IL-3, 12 H (FDC-cfms cells; Compound I 5 μM): 106917 cells/mL | Cell count, IL-3, 24 H (FDC-cfms cells; Compound I 5 μM): 197435 cells/mL | Cell count, IL-3, 48 H (FDC-cfms cells; Compound I 5 μM): 682771 cells/mL | Cell count, IL-3, 12 H (FDC-cfms cells; Compound I […]): 131857 cells/mL | Cell count, IL-3, 24 H (FDC-cfms cells; Compound I […]): 247613 cells/mL | Cell count, IL-3, 48 H (FDC-cfms cells; Compound I […]): 940233 cells/mL | cell counts, M-CSF ([2]; 24 h, 5.0 μM Compound I): lower than seeded values | Cell count, M-CSF, 12 H ([2]; Compound I 0.5 μM): 133296 cells/mL | Cell count, M-CSF, 24 H ([2]; Compound I 0.5 μM): 339185 cells/mL | Cell count, M-CSF, 48 H ([2]; Compound I 0.5 μM): 1577777 cells/mL | Cell count, M-CSF, 12 H ([2]; Compound I 1 μM): 130010 cells/mL | Cell count, M-CSF, 24 H ([2]; Compound I 1 μM): 311035 cells/mL | Cell count, M-CSF, 48 H ([2]; Compound I 1 μM): 1362802 cells/mL | Cell count, M-CSF, 12 H ([2]; Compound I 5 μM): 68324 cells/mL | Cell count, M-CSF, 24 H ([2]; Compound I 5 μM): 20830 cells/mL | Cell count, M-CSF, 48 H ([2]; Compound I 5 μM): 20149 cells/mL | Cell count, M-CSF, 12 H ([2]; Compound I […]): 117025 cells/mL | Cell count, M-CSF, 24 H ([2]; Compound I […]): 174818 cells/mL | Cell count, M-CSF, 48 H ([2]; Compound I […]): 295134 cells/mL | inhibition at 5 µM [3]: 50%
